Assay results published in patent US20240238274A1, “INHIBITORS OF UBIQUITIN SPECIFIC PEPTIDASE 22 (USP22) AND USES THEREOF FOR TREATING DISEASE AND DISORDERS” (Northwestern University, priority 2021, published 2024).

Test system: LLC1 lung carcinoma
Test: LLC1 tumor model in WT mice
Assay type: in vivo
Description: FIG. 6: Usp22 inhibitor administration enhances antitumor immunity. A, Structure of compound CS30 (Usp22i-S02). B, FOXP3 MFI in WT and 22KO of Treg cells after treatment with 20 mg/kg of Usp22i-S02 in vivo (n=3). C, Representative flow cytometry plot of FOXP3+CD25+ MFI of CD4+ peripheral cells of mice treated with 20 mg/kg of Usp22i-S02 relative to control (n=5). D, Graphical representation of Foxp3 MFI upon Usp22i-S02 administration (n=5). E, Tumor growth curve of LLC1 cells subcutaneously injected in the flank of WT mice with or without the addition of 20 mg/kg/time of the Usp22 inhibitor starting at day 15, in 100 μL of oil (n=4). F-G, Representative flow cytometry plot and graphical representation of % infiltration of CD4+ and CD8+ T cells within the tumor (n=4). H, Representative histogram plot and graphical representation of itTreg Foxp3 MFI (n=4). I, MFI of itTreg suppressive markers (n=3-4). J, Percent Foxp3+IFNg+ itTreg cells in control and Usp22-S02 treated mice (n=3-4). B, D-E, G, H-I Two-way ANOVA with multiple comparisons between rows was performed to determine statistical significance. J, Unpaired two tailed T test was performed to determine significance. All data are presented as mean±stdev. NS, not significant. *P<0.05, **P<0.01, ***P<0.001, ****P<0.0001.
FIG. 16: Usp22i-S02 has little effect on naïve mice, yet enhances anti-tumor immunity in LLC1-challenged mice. A, Body weight of Usp22i-S02 treated mice verses DMSO treated controls over the course of treatment (n=4). A-F. Injections were twice a day for 3 consecutive days at 10 mg/kg (n=4). B, Percent of cell populations in naïve mice treated with Usp22i-S02 relative to DMSO control (n=3-4). C, Percent of KI-67+ cells in various compartments in naïve mice treated with Usp22i-S02 relative to DMSO control (n=3-4). D, Percent CD44^hiCD62L^10 in T cell populations gated on CD45+ cells in naïve mice treated with Usp22i-S02 relative to DMSO control (n=3). E, Percent Annexin+PI+ T cells gates on CD45+ cells in naïve mice treated with Usp22i-S02 relative to DMSO control (n=4). […]

Compound: N#Cc1c2c(c(Nc3ccccc3)n3c1nc1ccccc13)CCCC2 [Chemical S02, 11-anilino-7,8,9,10-tetrahydro-benzimidazo [1,2-b] isoquinoline-6-carbonitrile]
- intratumoral Foxp3+ Treg percentage (LLC1 tumors, not splenic): significantly decreased
- Teff cell tumor infiltration (established LLC1 tumors): significant increase in Teff cell tumor infiltration
- tumor rejection (established LLC1 tumors, 20 mg/kg/time vs untreated): striking tumor rejection
